Experimental data: US20120214760A1, “TREATMENT OF URINARY TRACT INFECTIONS WITH ANTIBACTERIAL AMINOGLYCOSIDE COMPOUNDS” (Achaogen, Inc., priority 2009, published 2012)
≈ marks a conversion by molar mass, not a printed value.

What was measured:
[1] = system: P. mirabilis and M. morganii; assay: MIC, urinary tract infection isolates; type: cell-based
Procedure: (§1) Minimum inhibitory concentrations (MIC) were determined by reference Clinical and Laboratory Standards Institute (CLSI) broth microdilution methods per M7-A7 [2006]. Quality control ranges utilizing E. coli ATCC 25922, P. aeruginosa ATCC 27853 and S. aureus ATCC 29213, and interpretive criteria for comparator agents were as published in CLSI M100-S17 [2007]. Briefly, serial two-fold dilutions of the test compounds were prepared at 2× concentration in Mueller Hinton Broth. The compound dilutions were mixed in 96-well assay plates in a 1:1 ratio with bacterial inoculum. The inoculum was prepared by suspension of a colony from an agar plate that was prepared the previous day. Bacteria were suspended in sterile saline and added to each assay plate to obtain a final concentration of 5×10^5 CFU/mL. The plates were incubated at 35° C. for 20 hours in ambient air.
(§2) In order to determine the activity of representative antibacterial aminoglycoside compounds against bacterial species that commonly cause complicated urinary tract infections worldwide, isolates were collected from 47 medical centers in the U.S. and Europe (10 countries) from urine or blood culture with the source of bacteremia documented as a urinary tract infection. Strains were susceptibility tested against Example 1, gentamicin, amikacin and 10 comparators by CLSI broth microdilution. These MIC assays were conducted following the same protocol as set forth in Example 110. Pathogens (169 in total) included E. coli, Klebsiella spp., Enterobacter spp., Citrobacter spp., P. mirabilis, M. Morganii, P. aeruginosa, S. aureus and S. saprophyticus.

S. saprophyticus (19) = assay: MIC, urinary tract infection isolates; type: cell-based; conditions: Staphylococcus saprophyticus; S. saprophyticus isolates
Procedure: as §1, §2

[2] = system: E. coli, Klebsiella spp., Enterobacter spp. and Citrobacter spp.; assay: MIC, urinary tract infection isolates; type: cell-based; conditions: Escherichia coli, range among E. coli
Procedure: as §1, §2

P. aeruginosa (19) = assay: MIC, urinary tract infection isolates; type: cell-based; conditions: Pseudomonas aeruginosa; P. aeruginosa isolates
Procedure: as §1, §2

S. aureus (23) = assay: MIC, urinary tract infection isolates; type: cell-based; conditions: Staphylococcus aureus; S. aureus isolates, including 43.5% oxacillin-resistant strains
Procedure: as §1, §2

[3] = system: K. pneumoniae AKPN 1073, MDR; assay: Murine neutropenic thigh model; type: in vivo
Procedure: FIG. 2 is a line graph showing dose-responses of Example 1, gentamicin, and imipenem (positive control) in a murine neutropenic thigh model against an AG-resistant clinical isolate of K. pneumoniae (AKPN 1073). Activity is presented as the log10 difference in CFU/thigh after 24 hours of antibiotic treatment compared to CFU/thigh just prior to antibiotic treatment (2 hours post-infection). Total dose per 24 hours is shown; dosing was q12 hours. 6 mice per group. Inoculum=1.3×10^4 CFU.
The in vivo activity of Example 1 in the mouse neutropenic thigh model (Andes and Craig. Antimicrob Agents Chemother. 2002, 46:1665-1670) was determined against seven bacterial strains including susceptible Escherichia coli and Klebsiella pneumoniae; multi-drug resistant (MDR) clinical isolates of E. coli and K. pneumoniae that display resistance to multiple antibiotics (including AGs); MRSA; and two K. pneumoniae carbapenemases (KPC)-expressing strains (see Table 5). For this efficacy model, groups of six CD-1 mice were rendered neutropenic by two intraperitoneal injections of cyclophosphamide. The first injection was 150 mg/kg three days prior to infection (day −4), and the second injection was 100 mg/kg one day prior to infection (day −1). On study day 0, animals were inoculated intramuscularly (0.1 ml) with a known number of colony forming units (CFU) of the specified bacterial strain (ATCC 25922, AECO 1003, ATCC 43816, AKPN 1073, AKPN 1109, ATCC 33591 or ASMA 1030), tailored to the virulence of each strain in the model to maximize bacterial load while avoiding mortality in the untreated control arms. Antibiotics were administered via subcutaneous injection at 2 and 14 hours after bacterial challenge. At 26 hours, infected thigh tissue was harvested, homogenized, and plated to count CFU. Untreated control animals were harvested at 2 hours post-infection to assess the initial bacterial load and at 26 hours post-infection to measure growth in the absence of antibiotic treatment.

E. coli AECO 1003, MDR = assay: MIC of thigh model strain; type: cell-based; conditions: Escherichia coli; Table 5; E. coli MDR AECO 1003; read-out: MIC
Procedure: as §1

[4] = system: K. pneumoniae AKPN 1073, MDR; assay: MIC of thigh model strain; type: cell-based; conditions: Klebsiella pneumoniae; Table 5; K. pneumoniae MDR AKPN 1073
Procedure: as §1

[5] = system: S. marcescens ASMA 1030, KPC; assay: MIC of thigh model strain; type: cell-based; conditions: Serratia marcescens; Table 5; S. marcescens KPC ASMA 1030
Procedure: as §1

[6] = system: K. pneumoniae AKPN 1109, KPC; assay: MIC of thigh model strain; type: cell-based; conditions: Klebsiella pneumoniae; Table 5; K. pneumoniae KPC AKPN 1109
Procedure: as §1

[7] = system: K. pneumoniae ATCC 43816, Susceptible; assay: MIC of thigh model strain; type: cell-based; conditions: Klebsiella pneumoniae, ATCC43816; Table 5; K. pneumoniae Susceptible ATCC 43816
Procedure: as §1

## CN[C@@H]1[C@@H](O)[C@@H](O[C@@H]2[C@@H](O)[C@H](O[C@H]3OC(CNCCO)=CC[C@H]3N)[C@@H](N)C[C@H]2NC(=O)[C@@H](O)CCN)OC[C@]1(C)O [Example 1, 6′-(2-Hydroxy-ethyl)-1-(4-amino-2(S)-hydroxy-butyryl)-sisomicin]
[1]
  MIC90: 4 to 8 µg/mL (≈ 6.75 to 13.5 µM)
S. saprophyticus (19)
  MIC50: ≤ 0.25 µg/mL
  MIC90: 0.5 µg/mL (≈ 0.844 µM)
[2]
  MIC90: 0.5 to 2 µg/mL (≈ 0.844 to 3.37 µM)
P. aeruginosa (19)
  MIC90: 16 µg/mL (≈ 27 µM)
S. aureus (23)
  MIC90: 2 µg/mL (≈ 3.37 µM)
[3]; K. pneumoniae AKPN 1073
  ED50/MIC: 6.6
[3]; Klebsiella pneumoniae, sc, neutropenic CD-1 mice, subcutaneous at 2 and 14 hours, K. pneumoniae AKPN 1073
  ED50: 3.3 mg/kg
[3]; two highest dosages, challenge 1.3×10^4 CFU AKPN 1073, FIG. 2
  bacterial load after 24 hours of treatment versus initial bacterial load at 2 hours post-inoculation: reduced to below the level of the initial bacterial load
E. coli AECO 1003, MDR
  MIC: 1 µg/mL
[4]
  MIC: 0.5 µg/mL
[5]
  MIC: 1 µg/mL
[6]
  MIC: 0.25 to 0.5 µg/mL
[7]
  MIC: 0.5 µg/mL
